Consider six compounds from patent publication US4080471A, “Use of substituted isopropylaminopropanols for inducing inotropic effects of the human heart” (priority 1976, dated 1978).

The test system of series [1] is heart. Briefly: Ventricular arrhythmia in dogs after two-stage ligation of the left anterior coronary artery (third day post infarction). Particulars: 1-norepinephrine 20 μg/kg/min infusion, 120 minutes. The class given is in vivo, dog. On the procedure:
Harris, A. S. Delayed Development of Ventricular Ectopic Rhythms following Coronary Occlusion, Cir. l, p 1318, (1950) described a method of two-stage ligation of the left anterior coronary artery in the dog. This method produces a multifocal ventricular arrhythmia that generally remains persistent on the first post ligation day (day 1-24 hours post infarct). The arrhythmia slowly disappears, and by the third post-ligation day the animal has essentially a normal sinus rhythm.
Maling, H. M. and Moran, N. C., Ventricular Arrhythmias Induced by Sympathominetic Amines in Unanesthetized Dogs Following Coronary Artery Occlussion, Cir.
METHODS, MATERIALS AND EXPERIMENTAL DESIGN
Seventeen adult female beagle dogs were used. Their ages ranged from one to three years. These animals were divided into two groups.
The first group consisted of 12 dogs and served as a control group. All animals were subjected to a two-stage ligation of the left anterior coronary artery. On the first post operative day these twelve animals were given various experimental antiarrhythmic agents as part of a routine testing procedure. It should be noted that, due to the nature of these agents, there would be no test drug or only trace amounts of test drug in the blood on day 3, and these amounts would cause little or no change on the outcome of a third day test. It should also be noted that all twelve of these animals has at least 85% ventricular ectopic beats on the morning after surgery in order to be accepted for testing.
On the third day post infarction the dogs were suspended in a standing position in a canvas sling. No anesthesia or sedation was used. ECGs were recorded as well as blood pressure. After a control period, an infusion of 20 μg/kg min. of 1-norepinephrine was begun using a Harvard infusion/withdrawal pump. This infusion lasted 120 minutes.
These five animals were all subjected to a two stage ligation of the anterior descending coronary artery. On day 1 and day 2 each dog was suspended in a canvas sling in the standing position and ECG, blood pressure, and other physiologic measurements were taken. […]

Series [2] deals with heart. Kind of series: Effect on heart chronotropy and inotropy of a conscious dog. The following applies: for Enddiastolic volume / Stroke volume / Mean arterial blood pressure / Peak aortic flow / Mean ejection rate / Max. dF/dt: change i.v. at heart frequency +10 beats/min, interpolated, paced; for Enddiastolic volume: calculated from left ventricle diameter; for Stroke volume: methyl scopolamine pretreated; for Mean ejection rate: stroke volume / ejection time; for side effects: I and II 10 and 20 μg/kg; for Max. dF/dt: maximum flow acceleration in aorta. An excerpt: During anesthesia a catheter was introduced in the aorta, an electromagnetic flow probe was placed around the ascending aorta, and induction coils were placed diametrically on the inside of the left ventricle. The experiments were started about 2 weeks after the incision, when the dog had recovered completely.
When the dog was resting, the arterial blood pressure, the flow in the aorta, the maximum flow acceleration in the aorta (maximum dF/dt), heart frequency, the diameter of the left ventricle, and ECG were registered. The effects of compounds I and II were registered at 10, 20, and 30 minutes after administration. […] The compounds were given intravenously in the following doses. […] In order to eliminate vagal influence on the heart the dog was pretreated with methyl scopolamine 0.012 mg/kg bodyweight intramuscularily 20 minutes before the administration of the compounds. From the data giving the diameter of the left ventricle, the end diastolic volume was calculated according to E. W. Hawthorne. Mean ejection rate (ml/sec.) was calculated by dividing the stroke volume with the ejection time. […] The values given are the percentage changes after administration when the heart frequency has increased 10 beats per minute, values interpolated. […] In order to compare the inotropic effects of ouabain with those of the other compounds, the heart was stimulated in these experiments by electric pacing to a frequency which was 10 beats/minute above that registered before administration.
In order to investigate the absorption and duration of the effect, compounds I and II were given orally in an amount of 100 μg/kg bodyweight.

For series [3], the target named is T1, beta-receptors of the blood vessels (Felis catus, UniProt Q9TST5).
T1 construct: from tissue; host or cells: hind-limb vascular bed of the anaesthetized cat in vivo (constant-flow perfusion, reserpine-pretreated)
Briefly: Vasodilatating effect (hind limb perfusion pressure) on anesthetized cat pretreated with reserpine. Particulars: iv; reserpinized anesthetized cat, i.v.; estimated dose giving 50% of maximal effect; read-out: ED50 Vasodilation. The class given is in vivo. On the procedure:
(§1) Chronotropic (heart frequency) and vasodilatating effects:
(§2) When the cats had been anaesthetized with Mebumal® 30 mg/kg bodyweight i.p., an artificial air respiration was started. The two vagus nerves were cut and the blood passing through a femoral artery was fed via a catheter and a pump back to the distal part of the vessel. Parallelly, a pressure transducer was connected by which the perfusion pressure was registered. At a perfusion with a constant flow, the perfusion pressure is directly proportional to the peripheral resistance of the vascular bed of the hind limb. Blood circulation in the foot was interrupted with a ligature. Heart frequency was registered with a cardiotachometer triggered by the ECG. The substances were administered intravenously in increasing doses and the dose-response curves of the heart frequency and the vasodilatation were constructed.
(§3) Further, the dose ratios (ED50 for vasodilatation/ED50 for heart frequency) are calculated. A dose ratio >1 indicates a heart selective effect.

Series [4] concerns the target T2, beta-receptors of the heart (Felis catus, UniProt Q9TST6).
T2 construct: Heart frequency was registered with a cardiotachometer triggered by the ECG; from tissue; host or cells: heart of the anaesthetized cat in vivo (reserpine-pretreated, vagotomized)
Briefly: Beta-adrenergic (chronotropic, heart frequency) effects on anesthetized cat pretreated with reserpine. The class given is in vivo. Particulars: for potency relative to isoprenaline, chronotropic effect: isoprenaline = 1, cat i.v.; for ED50: iv, reserpinized anesthetized cat, i.v., estimated dose giving 50% of maximal effect, read-out: ED50 Heart Frequency. On the procedure: as §1, §2, §3

Series [5] concerns beta-receptors of the heart. The series is described as above. The class given is in vivo. On the procedure:
as §1, §2, §3

The subject of series [6] is heart. Kind of series: Effect on heart contractility (maximum dP/dt) of the anesthetized dog. Type of series: in vivo. An excerpt: (§4) Effects of Compound I and Ouabain On the Heart Contractility and Rhythmicity of the Anesthetized Dog
(§5) The object of the test was to compare compound I and oubain administered alone and in combination with each other to study the inotropic effect (maximum dP/dt in the left ventricle) and a possibly arrhythmic effect. The latter included an investigation of the ability of the compounds to cause repetitive ventricular response (RVR) when the heart was electrically stimulated via an electrode on the ventricle at the electrically vulnerable phase at the end of the T-wave. Klein et al. (M. Klein, N. S. Nejad, B. Lown, F. Hagemeijer and I. Blair, Circulation Research, 29, 635 (1971)) have shown that digitalis caused RVR at a dose which was about 70% of the dose giving spontaneous ventricular arrhythmias.
(§6) The dog was anesthetized with Mebumal® 30 mg/kg bodyweight i.v. Artificial respiration was applied. The sinus-node was electrocoagulated and the heart frequency was kept constant at 180 beats/minute in each test by electrical pacing of the auricle. Mean arterial blood pressure was registered from the carotis artery. ECG was registered during the test. Further, the pressure in the left ventricle was registered via a catheter inserted through the apex and connected to a pressure transducer. The intraventricular pressure curve was derivated to obtain maximum dP/dt which is a measure of the contractile force of the heart.
(§7) The test was started with a series of control registrations, whereupon the compounds were administered 3 times by infusion during five minutes and with an interval of 50 minutes between each infusion.
(§8) In the experiment with compound I only, the compound was administered in two doses of 10 μg/kg bodyweight and then one dose of 20 μg/kg bodyweight. Ouabain was given in 3 consecutive doses of 20 μg/kg bodyweight. In the combination test ouabain was first given in a dose of 20 μg/kg bodyweight followed by two doses of compound I of 10 and 20 μg/kg bodyweight, respectively.

For series [7], the system named is heart. Kind of series: Repetitive ventricular response (RVR) / spontaneous arrhythmia in the anesthetized dog. The class given is in vivo. The following applies: 40 μg/kg bodyweight.
Text: as §4, §5, §6, §7, §8

The mark [8] stands for this setting: conscious dog, ouabain 30 μg/kg i.v.
Where [9] appears, read: dose ratio >1 indicates a heart selective effect.
[10] abbreviates: 20 minutes after administration, ouabain versus compound I.
Where [11] appears, read: anesthetized dog, i.v. infusion.

T1 sequence (Q9TST5 whole entry, the tested form may be a part): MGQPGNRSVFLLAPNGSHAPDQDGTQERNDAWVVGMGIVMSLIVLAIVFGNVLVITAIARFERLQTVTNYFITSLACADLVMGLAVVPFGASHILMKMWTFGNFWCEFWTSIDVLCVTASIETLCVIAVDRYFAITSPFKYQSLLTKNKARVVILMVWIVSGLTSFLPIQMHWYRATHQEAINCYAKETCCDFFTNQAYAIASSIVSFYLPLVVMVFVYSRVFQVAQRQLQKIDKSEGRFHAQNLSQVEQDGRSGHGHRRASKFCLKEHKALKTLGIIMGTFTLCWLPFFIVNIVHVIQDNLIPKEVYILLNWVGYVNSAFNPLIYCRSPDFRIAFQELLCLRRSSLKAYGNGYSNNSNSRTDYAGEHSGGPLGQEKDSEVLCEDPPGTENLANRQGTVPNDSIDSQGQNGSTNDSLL
T2 sequence (Q9TST6 whole entry): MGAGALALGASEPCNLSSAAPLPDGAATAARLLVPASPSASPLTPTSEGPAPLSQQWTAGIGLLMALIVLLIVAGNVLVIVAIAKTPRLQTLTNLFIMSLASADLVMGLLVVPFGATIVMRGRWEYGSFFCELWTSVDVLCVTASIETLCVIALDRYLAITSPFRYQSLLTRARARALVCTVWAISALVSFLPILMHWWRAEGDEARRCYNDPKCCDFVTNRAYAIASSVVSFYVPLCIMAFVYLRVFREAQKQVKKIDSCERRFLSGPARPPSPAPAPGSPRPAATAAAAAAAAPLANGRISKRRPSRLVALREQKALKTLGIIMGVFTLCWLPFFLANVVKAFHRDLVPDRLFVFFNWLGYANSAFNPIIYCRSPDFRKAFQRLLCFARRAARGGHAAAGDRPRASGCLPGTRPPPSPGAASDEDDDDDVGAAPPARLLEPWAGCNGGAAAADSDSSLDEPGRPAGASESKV

As for `NC[C@H](O)c1ccc(O)c(O)c1` [norepinephrine, reference compound], the “duration of substantially high incidence of ectopic activity” value in series [1] was “at least 90 minutes”.

As for `CC(C)NCC(O)COc1ccc(OC(=O)C(C)C)cc1` (centres unmarked) [II, 1-isopropylamino-3-(p-isobutyryloxyphenoxy)-propanol-2], the “time of maximum effect, oral” value in series [2] (100 μg/kg bodyweight orally) was determined as 30 min. In series [2] (ouabain 30 μg/kg i.v.), the Enddiastolic volume is reported as -8%, the Stroke volume was 5%, the “Mean arterial blood pressure” value is on record as 0 mm Hg and the Peak aortic flow is reported as 19%. Also, in series [2] (ouabain 30 μg/kg i.v.), the Mean ejection rate is 11% and the “Max. dF/dt” value stood at 34%. In series [2] (setting [8]), the side effects entry is reported as “No side effect was observed”. Further, in series [2] (oral, 100 μg/kg bodyweight), the “oral effect (in words)” value was “comparable with those obtained after intravenous administration of 20 μg/kg bodyweight”. Moreover, the “positive inotropic effect compared with ouabain (in words)” value in series [2] (versus relatively high dose of ouabain) is “comparable to the effect of the relatively high dose of ouabain”. Besides, in series [3], the ED50 is over 1 mg/kg. In series [4], the “potency relative to isoprenaline, chronotropic effect” value is listed as “about 1/100” and the ED50 is 0.006 mg/kg. For the same compound, the “Selectivity: ED50 Vasodilatation / ED50 Heart Frequency” value in series [5] (setting [9]) is given as over 100.

For `CC(C)NCC(O)c1ccc(O)c(O)c1` (centres unmarked) [Isoprenaline, reference compound], in series [2] (ouabain 30 μg/kg i.v.), the Enddiastolic volume is reported as -2%, the “Mean arterial blood pressure” value is -10 mm Hg and the Peak aortic flow amounted to 19%. The “mean blood pressure (in words)” value in series [2] (conscious dog, infusion) was “decreased the mean blood pressure”. Moreover, the “contractility / inotropic effect in conscious dog (in words)” value in series [2] (i.v.) was “increased the contractility less than compounds I and II”.

For `C[C@@H]1O[C@@H](O[C@H]2C[C@@H](O)[C@]3(CO)[C@H]4[C@H](O)C[C@]5(C)[C@@H](C6=CC(=O)OC6)CC[C@]5(O)[C@@H]4CC[C@]3(O)C2)[C@H](O)[C@H](O)[C@H]1O` [Ouabain, reference compound], in series [2] (ouabain 30 μg/kg i.v.), the Enddiastolic volume is given as -2%, the Stroke volume stood at 5%, the “Mean arterial blood pressure” value came to 10 mm Hg and the Peak aortic flow was determined as 12%. In series [2] (ouabain 30 μg/kg i.v.), the Mean ejection rate is given as 10%, the “Max. dF/dt” value was 30% and the “time of maximum response after i.v. administration” value is on record as “about 50 minutes”. Moreover, in series [2] (setting [8]), the “heart frequency (in words)” value is recorded as “expected decrease of the heart frequency” and the side effects result was “vomiting”. Besides, the “increase of aortic blood pressure” value in series [6] (20 minutes after administration) is “about 10 mm Hg”. Further, in series [6] (setting [10]), the “doses giving approximately the same level of maximum dP/dt (lower pair)” value is reported as about 20 μg/kg bodyweight and the “doses giving corresponding effect on maximum dP/dt (higher pair)” value turned out to be 40 μg/kg bodyweight. Moreover, in series [6] (setting [11]), the “effect on maximum dP/dt (in words)” value is reported as “increased maximum dP/dt”, the “onset of effect on maximum dP/dt” value is on record as “within a minute”, the “reduction of effect on maximum dP/dt after 50 minutes” value is recorded as “only partly reduced after 50 minutes” and the “time to maximal effect on maximum dP/dt” value is on record as “about 20 minutes”. Besides, the “experiments with RVR” value in series [7] is “more than 50%”.

With `CC(C)NCC(O)COc1ccc(OC(=O)c2ccccc2)cc1` (centres unmarked) [III, 1-isopropylamino-3-(p-benzoyloxyphenoxy)-propanol-2], the ED50 in series [3] was over 1 mg/kg; in series [4], 0.01 mg/kg. Also, the “potency relative to isoprenaline, chronotropic effect” value in series [4] is recorded as “about 1/100”. For the same compound, the “Selectivity: ED50 Vasodilatation / ED50 Heart Frequency” value in series [5] (setting [9]) is over 100.

`CC(C)NCC(O)COc1ccc(OC(=O)C(C)(C)C)cc1` (centres unmarked) [IV, 1-isopropylamino-3-(p-pivaloyloxyphenoxy)-propanol-2]: the ED50 in series [3] was over 1 mg/kg; in series [4], 0.06 mg/kg. In addition, in series [5] (in vivo), the “Selectivity: ED50 Vasodilatation / ED50 Heart Frequency” value is over 15.

The term ED50 denotes the dose at which the effect has come halfway, by size or by number of responders.
